Assay results from PubChem BioAssay AID1159563 (GlaxoSmithKline (GSK), 2015).
Active and inactive are the calls of the source. How the calls were made is not given here.

tested on: HepG2 cytotoxicity; test: HepG2 cell cytotoxicity, cytotoxicity control (AID 1159563)

| SMILES | IC50 |
| --- | --- |
| N#Cc1ccc(S(=O)(=O)N2CCC3(CCN(c4ccccc4)C3=O)CC2)cc1 | > 100 µM (inactive) |
| COc1ccc(S(=O)(=O)Nc2ccc(CN3CCN(C(=O)c4cccc(C#N)c4)CC3)cc2)cc1 | > 100 µM (inactive) |
| O=C(NCC(c1cccs1)N1CCOCC1)c1ccc([N+](=O)[O-])o1 (configuration not stated) | 20 µM |
| Cc1ccnc(NS(=O)(=O)c2ccc(NC(=O)c3ccc([N+](=O)[O-])s3)cc2)n1 | 16 µM |
| CC(C)(C)C(Cn1ccnc1)NC(=O)c1ccc2nc(C3CC3)oc2c1 (configuration not stated) | > 100 µM (inactive) |
| c1ccc(Nc2nc3ccccc3[nH]2)nc1 | 79 µM |
| COc1ccc2c(Cl)c(C(=O)N3CCC3)sc2c1Cl | > 100 µM (inactive) |
| COc1cc2c(cc1OC)[C@H]1[C@@H](C)c3ccc(OC)c(OC)c3CN1CC2 | > 100 µM (inactive) |
| CCCc1cc(N)nc(-c2cc(CCC)cc(N)n2)c1 | 32 µM |
| COc1ccc2nccc(NC(=O)C3(OC)CCN(CC(O)c4ccc5c(c4)OCCO5)CC3)c2n1 (configuration not stated) | 40 µM |
| CN(C)S(=O)(=O)c1ccc(-c2cnc(N)c(-c3nc4ccc(F)cc4[nH]3)c2)cc1 | > 100 µM (inactive) |
| O=c1ccc2ccc(F)c3c2n1C[C@H]3CN1CCN(CC(O)c2cc3c(cn2)OCS3)CC1 (some centres not stated) | > 100 µM (inactive) |
| CNc1cncc(C2CCCN2C(=O)Cc2coc3cc(C)ccc23)n1 (configuration not stated) | > 100 µM (inactive) |
| O=[N+]([O-])c1cccc(Nc2cncc(-c3ccccc3CO)c2)c1 | > 100 µM (inactive) |
| COc1ccc(S(=O)(=O)NCc2ccc(-c3ccc(CN(C)CCO)cc3)cc2)cc1 | 50 µM |
| COc1ccc(C(=O)Nc2cc(C(F)(F)F)ccc2N2CCOCC2)c(OC)c1 | > 100 µM (inactive) |
| Cc1cc(NC(=O)C2CC2)ccc1OC1CCN(Cc2ccco2)CC1 | 50 µM |
| O=C1CN(C2CCCc3c(OCc4ccncc4)cccc32)C(=O)N1C1CCCCC1 (configuration not stated) | > 100 µM (inactive) |
| CCCn1c(NC(=O)Cc2ccc(Cl)cc2)nc2ccccc21 | > 100 µM (inactive) |
| O=C(NCc1ccncc1)c1ccccc1N1CCCN(C(=O)Cc2ccc(F)c(F)c2)CC1 | > 100 µM (inactive) |
| O=C(Nc1ccc(-c2nc3ccccc3c(=O)[nH]2)cc1)c1cccs1 | > 100 µM (inactive) |
| COc1cc(OC)cc(C(=O)N[C@@H](CC(C)C)C(=O)NC2(C#N)CC2)c1 | > 100 µM (inactive) |
| Cn1c(CN2CCN(c3ncc(C(F)(F)F)cc3Cl)CC2)nc2ccncc21 | > 100 µM (inactive) |
| Cc1ccccc1CNc1cc(C2CC2)nc(-c2nccn2C)n1 | 16 µM |

| SMILES | IC50 |
| --- | --- |
| COc1cc(C2SCC(=O)Nc3c2c(C)nn3-c2nc3ccccc3s2)cc(OC)c1O (configuration not stated) | > 100 µM (inactive) |
| Cc1cc(Nc2cc(C3CC3)[nH]n2)nc(N2CCCC2)n1 | 32 µM |
| CCC(=O)Nc1ccc(-c2nc3ccc(Cl)cc3[nH]2)cc1 | > 100 µM (inactive) |
| Cc1nc2c(-c3ncn[nH]3)cc(NC(=O)Cc3ccccc3)cn2c1C | 16 µM |
| OC[C@@H](Nc1nccc(-c2c(-c3ccc(F)cc3)ncn2C2CCNCC2)n1)c1ccccc1 | 100 µM |
| Cc1ccc(NC(=O)c2ccnc(N3CCCC3)c2)cc1-c1ccsc1C(N)=O | > 100 µM (inactive) |
| CCN(CC)c1nc(Nc2ccncc2)nc2ccccc12 | 50 µM |
| CC(=O)Nc1ccc(-c2cnc(N)c(-c3nc4ccc(F)cc4[nH]3)c2)cc1 | 10 µM |
| Clc1ccc(CN2CCN(C3=NCCN3)CC2)cc1Cl | 63 µM |
| Cc1nc(N2CCC(C(=O)N3CCC(O)(c4cccnc4)CC3)CC2)nc2ccc(C(C)C)cc12 | 79 µM |
| COc1ncc(-c2ccc3nccc(-c4ccncc4)c3c2)cc1NS(=O)(=O)C1CC1 | > 100 µM (inactive) |
| O=C(c1cnn(-c2ccccc2)n1)N1CCCC(n2ccnc2)C1 (configuration not stated) | > 100 µM (inactive) |
| Cc1ccc2ccc(C(Nc3ccccn3)c3cccnc3)c(O)c2n1 (configuration not stated) | 20 µM |
| COc1cc(-c2noc(CC#N)n2)ccc1OC(F)F | > 100 µM (inactive) |
| Cc1nc2c(-c3cccs3)c(C)nn2c(NCCO)c1C | > 100 µM (inactive) |
| O=C(N[C@H](CO)c1ccccc1)c1ccc(-c2c[nH]c3nccc(C(F)(F)F)c23)s1 | 63 µM |
| O=C(CN(Cc1ccccn1)Cc1ccccn1)NCc1ccc2c(c1)OCO2 | > 160 µM (inactive) |
| CS(=O)(=O)c1ccc(Nc2nccc(-c3cnn4ncccc34)n2)cc1 | 16 µM |
| O=C(c1cc2cc(Cl)ccc2[nH]1)N1CCCCC1c1cccnc1 (configuration not stated) | 40 µM |
| O=C(Cc1ccc2c(c1)CCC2)Nc1n[nH]c(-c2ccccn2)n1 | 50 µM |
| CC(CCc1ccccc1)NC(=O)CN(Cc1ccccn1)Cc1ccccn1 (configuration not stated) | > 160 µM (inactive) |
| Oc1c(-c2n[nH]c(Cc3ccc(Cl)cc3)n2)ncc2cccnc12 | 40 µM |
| CC(C)S(=O)(=O)c1ccc(-c2cnc(N)c3cc(-c4ccnc(N)n4)ccc23)cc1 | 16 µM |
| Cc1nn(C2CCS(=O)(=O)C2)c(C)c1CN(C)C(=O)C=Cc1sc2ccccc2c1Cl (configuration not stated) | > 100 µM (inactive) |

| SMILES | IC50 |
| --- | --- |
| Cn1nc(-c2ccc(NC(=O)Cc3ccccc3Cl)cc2)c2c(N)ncnc21 | > 100 µM (inactive) |
| CS(=O)(=O)NC1CCC(Oc2cc3cnccc3cc2-c2ccsc2)CC1 (configuration not stated) | 63 µM |
| CC(C)c1cc(Nc2cc(Cc3ccccc3)nc(NC3CCC(O)CC3)n2)n[nH]1 (configuration not stated) | 32 µM |
| NCc1ccc2c(Cl)cc(Cl)c(O)c2n1 | 25 µM |
| COc1ccc(-c2cnc(NC(=O)c3cc(-c4ccccn4)n[nH]3)n2C)cc1 | > 100 µM (inactive) |
| CC(C)(C)c1csc(NC(=O)c2ccc([N+](=O)[O-])s2)n1 | 50 µM |
| CCc1cccc(CC)c1-n1c(SCC(=O)NC(=O)NCc2ccco2)nnc1-c1cccnc1 | > 100 µM (inactive) |
| COc1cnc2ccc(=O)n(CCN3CCC(NC/C=C/c4cc(F)ccc4F)CC3)c2c1 | 63 µM |
| COc1cnc2ccc(=O)n(CCN3CCC(NC(=O)Cc4ccc(Cl)c(Cl)c4)CC3)c2c1 | 63 µM |
| COc1ccc(CN(C)Cc2ccncc2)cc1-c1ccc(S(=O)(=O)NC2CCC2)s1 | > 100 µM (inactive) |
| COc1cccc(C(=O)[C@H]2C[C@@H]2CN(Cc2cccnc2)Cc2cccnc2)c1 | > 100 µM (inactive) |
| CC1(C)CCC(=Cc2ccc(Cl)cc2)CC1(O)Cn1ccnc1 (configuration not stated) | 50 µM |
| CNc1c(C(N)=O)c(-c2ccc3scnc3c2)nn1CC(F)(F)F | > 100 µM (inactive) |
| CN(C)S(=O)(=O)c1cccc(CSc2nnc(-c3ccc4c(c3)OCO4)o2)c1 | > 100 µM (inactive) |
| Cc1cc(C)cc(NS(=O)(=O)c2cc(-c3cc(C)[nH]n3)ccc2C)c1 | 63 µM |
| COCc1cnc2c(c1SCc1c(F)cccc1Cl)c(=O)n(C)c(=O)n2C | > 100 µM (inactive) |
| COc1ccc(OC)c(NC(=O)c2ccc([N+](=O)[O-])o2)c1 | 20 µM |
| CNC(=O)Oc1ccc(C(=O)NCc2ccccc2)cc1OC(=O)NC | > 100 µM (inactive) |
| Nc1nc(-c2ccccn2)nc(-n2nc(-c3ccccc3)cc2N)n1 | 10 µM |
| COc1ccc(C(=O)[C@H]2C[C@@H]2CN(Cc2ccccn2)Cc2ccccn2)cc1 | > 100 µM (inactive) |
| Cc1c(C(=O)NCCCCn2ccnc2)oc2c(C)cccc12 | 79 µM |
| COc1ccc2ncc(F)c(CCN3CC[C@@H](NC(=O)c4cc5c(s4)CCC5)[C@@H](O)C3)c2n1 | 50 µM |
| COc1cc(OC)cc(C(NS(=O)(=O)c2ccc(Cl)c(C(F)(F)F)c2)c2nccn2C)c1 (configuration not stated) | > 100 µM (inactive) |
| O=c1ccn(-c2ccc([N+](=O)[O-])cc2Cl)c2ccc(F)cc12 | > 100 µM (inactive) |
